# Assay results: ChEMBL document CHEMBL1201861, “Genomics of Drug Sensitity in Cancer screening data, Wellcome Trust Sanger Institute”
# pIC50: −log10 of the molar value.
# Test system: KS-1;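 further: growth inhibition of KS-1 cells, read out with a cell viability assay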
# Assay: cells
# Format: functional, cell-based, Homo sapiens
# Conditions: Homo sapiens, KS-1
# Description: SANGER: Inhibition of human KS-1 cell growth in a cell viability assay.
row,SMILES,pIC50
1,CCN(CC)CCNC(=O)c1c(C)[nH]c(/C=C2\C(=O)Nc3ccc(F)cc32)c1C [SUNITINIB],5.77

# Test system: IST-MES1;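 further: growth inhibition of IST-MES1 cells, measured with a cell viability assay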
# Assay: cells
# Format: functional, cell-based, Homo sapiens
# Conditions: Homo sapiens, IST-MES1
# Description: SANGER: Inhibition of human IST-MES1 cell growth in a cell viability assay.
row,SMILES,pIC50
1,CCN(CC)CCNC(=O)c1c(C)[nH]c(/C=C2\C(=O)Nc3ccc(F)cc32)c1C [SUNITINIB],< 5.10

# Test system: no-10;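 further: growth inhibition of no-10 cells, read out with a cell viability assay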
# Assay: cells
# Format: functional, cell-based, Homo sapiens
# Conditions: Homo sapiens
# Description: SANGER: Inhibition of human no-10 cell growth in a cell viability assay.
row,SMILES,pIC50
1,CCN(CC)CCNC(=O)c1c(C)[nH]c(/C=C2\C(=O)Nc3ccc(F)cc32)c1C [SUNITINIB],< 5.10

# Test system: GI-1;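 further: growth inhibition of human GI-1 cells, measured with a cell viability readout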
# Assay: cells
# Format: functional, cell-based, Homo sapiens
# Conditions: Homo sapiens, GI-1
# Description: SANGER: Inhibition of human GI-1 cell growth in a cell viability assay.
row,SMILES,pIC50
1,CCN(CC)CCNC(=O)c1c(C)[nH]c(/C=C2\C(=O)Nc3ccc(F)cc32)c1C [SUNITINIB],< 5.10

# Test system: SW 954;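 further: growth inhibition of SW954 human cancer cells, read out as cell viability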
# Assay: cells
# Format: functional, cell-based, Homo sapiens
# Conditions: Homo sapiens, SW 954
# Description: SANGER: Inhibition of human SW954 cell growth in a cell viability assay.
row,SMILES,pIC50
1,CCN(CC)CCNC(=O)c1c(C)[nH]c(/C=C2\C(=O)Nc3ccc(F)cc32)c1C [SUNITINIB],5.20

# Test system: NCI-H23;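 further: cell viability assay measuring growth inhibition of NCI-H23 cells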
# Assay: cells
# Format: functional, cell-based, Homo sapiens
# Conditions: Homo sapiens, NCI-H23
# Description: SANGER: Inhibition of human NCI-H23 cell growth in a cell viability assay.
row,SMILES,pIC50
1,CCN(CC)CCNC(=O)c1c(C)[nH]c(/C=C2\C(=O)Nc3ccc(F)cc32)c1C [SUNITINIB],< 5.10

# Test system: MLMA;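 further: growth inhibition of MLMA cells (human), determined through a cell viability readout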
# Assay: cells
# Format: functional, cell-based, Homo sapiens
# Conditions: Homo sapiens, MLMA
# Description: SANGER: Inhibition of human MLMA cell growth in a cell viability assay.
row,SMILES,pIC50
1,CCN(CC)CCNC(=O)c1c(C)[nH]c(/C=C2\C(=O)Nc3ccc(F)cc32)c1C [SUNITINIB],< 5.10

# Test system: MEG-01;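 further: growth inhibition of MEG-01 cells, read out by a cell viability assay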
# Assay: cells
# Format: functional, cell-based, Homo sapiens
# Conditions: Homo sapiens, MEG-01
# Description: SANGER: Inhibition of human MEG-01 cell growth in a cell viability assay.
row,SMILES,pIC50
1,CCN(CC)CCNC(=O)c1c(C)[nH]c(/C=C2\C(=O)Nc3ccc(F)cc32)c1C [SUNITINIB],5.74

# Test system: K562
# Assay: cells
# Format: functional, cell-based, Homo sapiens
# Conditions: Homo sapiens, K562
# Description: SANGER: Inhibition of human K-562 cell growth in a cell viability assay.
row,SMILES,pIC50
1,CCN(CC)CCNC(=O)c1c(C)[nH]c(/C=C2\C(=O)Nc3ccc(F)cc32)c1C [SUNITINIB],< 5.10

# Test system: NCI-H209;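 further: growth inhibition of human NCI-H209 cells, measured by a cell viability assay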
# Assay: cells
# Format: functional, cell-based, Homo sapiens
# Conditions: Homo sapiens, NCI-H209
# Description: SANGER: Inhibition of human NCI-H209 cell growth in a cell viability assay.
row,SMILES,pIC50
1,CCN(CC)CCNC(=O)c1c(C)[nH]c(/C=C2\C(=O)Nc3ccc(F)cc32)c1C [SUNITINIB],< 5.10

# Test system: KURAMOCHI;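 further: growth inhibition of KURAMOCHI cells, read out with a cell viability assay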
# Assay: cells
# Format: functional, cell-based, Homo sapiens
# Conditions: Homo sapiens, KURAMOCHI
# Description: SANGER: Inhibition of human KURAMOCHI cell growth in a cell viability assay.
row,SMILES,pIC50
1,CCN(CC)CCNC(=O)c1c(C)[nH]c(/C=C2\C(=O)Nc3ccc(F)cc32)c1C [SUNITINIB],< 5.10

# Test system: NTERA-2-cl-D1;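 further: inhibition of cell growth, measured with a cell viability assay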
# Assay: cells
# Format: functional, cell-based, Homo sapiens
# Conditions: Homo sapiens, NTERA-2-cl-D1
# Description: SANGER: Inhibition of human NTERA-S-cl-D1 cell growth in a cell viability assay.
row,SMILES,pIC50
1,CCN(CC)CCNC(=O)c1c(C)[nH]c(/C=C2\C(=O)Nc3ccc(F)cc32)c1C [SUNITINIB],< 5.10

# Test system: HL-60;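 further: growth inhibition of human HL-60 cells, read out with a cell viability assay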
# Assay: cells
# Format: functional, cell-based, Homo sapiens
# Conditions: Homo sapiens, HL-60
# Description: SANGER: Inhibition of human HL-60 cell growth in a cell viability assay.
row,SMILES,pIC50
1,CCN(CC)CCNC(=O)c1c(C)[nH]c(/C=C2\C(=O)Nc3ccc(F)cc32)c1C [SUNITINIB],5.38

# Test system: A4-Fuk;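 further: growth inhibition of A4-Fuk cells, read out by a cell viability assay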
# Assay: cells
# Format: functional, cell-based, Homo sapiens
# Conditions: Homo sapiens, A4-Fuk
# Description: SANGER: Inhibition of human A4-Fuk cell growth in a cell viability assay.
row,SMILES,pIC50
1,CCN(CC)CCNC(=O)c1c(C)[nH]c(/C=C2\C(=O)Nc3ccc(F)cc32)c1C [SUNITINIB],5.87

# Test system: NCI-H1838;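 further: growth inhibition of NCI-H1838 cells, determined with a cell viability readout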
# Assay: cells
# Format: functional, cell-based, Homo sapiens
# Conditions: Homo sapiens, NCI-H1838
# Description: SANGER: Inhibition of human NCI-H1838 cell growth in a cell viability assay.
row,SMILES,pIC50
1,CCN(CC)CCNC(=O)c1c(C)[nH]c(/C=C2\C(=O)Nc3ccc(F)cc32)c1C [SUNITINIB],< 5.10

# Test system: RCC10RGB;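 further: growth inhibition of human RCC10RGB cells, read out by a cell viability assay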
# Assay: cells
# Format: functional, cell-based, Homo sapiens
# Conditions: Homo sapiens, RCC10RGB
# Description: SANGER: Inhibition of human RCC10RGB cell growth in a cell viability assay.
row,SMILES,pIC50
1,CCN(CC)CCNC(=O)c1c(C)[nH]c(/C=C2\C(=O)Nc3ccc(F)cc32)c1C [SUNITINIB],< 5.10

# Test system: ES8;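 further: growth inhibition of human ES8 cells, read out with a cell viability assay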
# Assay: cells
# Format: functional, cell-based, Homo sapiens
# Conditions: Homo sapiens, ES8
# Description: SANGER: Inhibition of human ES8 cell growth in a cell viability assay.
row,SMILES,pIC50
1,CCN(CC)CCNC(=O)c1c(C)[nH]c(/C=C2\C(=O)Nc3ccc(F)cc32)c1C [SUNITINIB],< 5.10

# Test system: EKVX;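 further: growth inhibition of human EKVX cells, read out with a cell viability assay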
# Assay: cells
# Format: functional, cell-based, Homo sapiens
# Conditions: Homo sapiens, EKVX
# Description: SANGER: Inhibition of human EKVX cell growth in a cell viability assay.
row,SMILES,pIC50
1,CCN(CC)CCNC(=O)c1c(C)[nH]c(/C=C2\C(=O)Nc3ccc(F)cc32)c1C [SUNITINIB],< 5.10

# Test system: LB2241-RCC;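 further: cell viability assay measuring how strongly the cultured human renal carcinoma line is prevented from growing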
# Assay: cells
# Format: functional, cell-based, Homo sapiens
# Conditions: Homo sapiens, LB2241-RCC
# Description: SANGER: Inhibition of human LB2241-RCC cell growth in a cell viability assay.
row,SMILES,pIC50
1,CCN(CC)CCNC(=O)c1c(C)[nH]c(/C=C2\C(=O)Nc3ccc(F)cc32)c1C [SUNITINIB],< 5.10

# Test system: COR-L88;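 further: growth inhibition of COR-L88 cells, read out with a cell viability assay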
# Assay: cells
# Format: functional, cell-based, Homo sapiens
# Conditions: Homo sapiens, COR-L88
# Description: SANGER: Inhibition of human COR-L88 cell growth in a cell viability assay.
row,SMILES,pIC50
1,CCN(CC)CCNC(=O)c1c(C)[nH]c(/C=C2\C(=O)Nc3ccc(F)cc32)c1C [SUNITINIB],< 5.10

# Test system: KM-H2;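 further: growth inhibition of KM-H2 cells, read out by a cell viability assay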
# Assay: cells
# Format: functional, cell-based, Homo sapiens
# Conditions: Homo sapiens, KM-H2
# Description: SANGER: Inhibition of human KM-H2 cell growth in a cell viability assay.
row,SMILES,pIC50
1,CCN(CC)CCNC(=O)c1c(C)[nH]c(/C=C2\C(=O)Nc3ccc(F)cc32)c1C [SUNITINIB],< 5.10

# Test system: DJM-1;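 further: growth inhibition of human DJM-1 cells, read out by a cell viability assay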
# Assay: cells
# Format: functional, cell-based, Homo sapiens
# Conditions: Homo sapiens, DJM-1
# Description: SANGER: Inhibition of human DJM-1 cell growth in a cell viability assay.
row,SMILES,pIC50
1,CCN(CC)CCNC(=O)c1c(C)[nH]c(/C=C2\C(=O)Nc3ccc(F)cc32)c1C [SUNITINIB],< 5.10

# Test system: NCI-H1770;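 further: growth inhibition of NCI-H1770 cells determined with a viability readout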
# Assay: cells
# Format: functional, cell-based, Homo sapiens
# Conditions: Homo sapiens, NCI-H1770
# Description: SANGER: Inhibition of human NCI-H1770 cell growth in a cell viability assay.
row,SMILES,pIC50
1,CCN(CC)CCNC(=O)c1c(C)[nH]c(/C=C2\C(=O)Nc3ccc(F)cc32)c1C [SUNITINIB],< 5.10

# Test system: Mo
# Assay: cells
# Format: functional, cell-based, Homo sapiens
# Conditions: Homo sapiens, Mo
# Description: SANGER: Inhibition of human Mo-T cell growth in a cell viability assay.
row,SMILES,pIC50
1,CCN(CC)CCNC(=O)c1c(C)[nH]c(/C=C2\C(=O)Nc3ccc(F)cc32)c1C [SUNITINIB],< 5.10

# Test system: ES5;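 further: growth inhibition of human ES5 cells, read out by a cell viability assay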
# Assay: cells
# Format: functional, cell-based, Homo sapiens
# Conditions: Homo sapiens, ES5
# Description: SANGER: Inhibition of human ES5 cell growth in a cell viability assay.
row,SMILES,pIC50
1,CCN(CC)CCNC(=O)c1c(C)[nH]c(/C=C2\C(=O)Nc3ccc(F)cc32)c1C [SUNITINIB],< 5.10

# Test system: HD-MY-Z;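 further: growth inhibition of HD-MY-Z cells, read out with a cell viability assay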
# Assay: cells
# Format: functional, cell-based, Homo sapiens
# Conditions: Homo sapiens, HD-MY-Z
# Description: SANGER: Inhibition of human HD-MY-Z cell growth in a cell viability assay.
row,SMILES,pIC50
1,CCN(CC)CCNC(=O)c1c(C)[nH]c(/C=C2\C(=O)Nc3ccc(F)cc32)c1C [SUNITINIB],5.29

# Test system: PSN1;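 further: suppression of growth of human PSN1 cells, read out by a cell viability assay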
# Assay: cells
# Format: functional, cell-based, Homo sapiens
# Conditions: Homo sapiens, PSN1
# Description: SANGER: Inhibition of human PSN1 cell growth in a cell viability assay.
row,SMILES,pIC50
1,CCN(CC)CCNC(=O)c1c(C)[nH]c(/C=C2\C(=O)Nc3ccc(F)cc32)c1C [SUNITINIB],5.82

# Test system: OS-RC-2;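 further: growth inhibition of human OS-RC-2 cells, measured by a cell viability assay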
# Assay: cells
# Format: functional, cell-based, Homo sapiens
# Conditions: Homo sapiens, OS-RC-2
# Description: SANGER: Inhibition of human OS-RC-2 cell growth in a cell viability assay.
row,SMILES,pIC50
1,CCN(CC)CCNC(=O)c1c(C)[nH]c(/C=C2\C(=O)Nc3ccc(F)cc32)c1C [SUNITINIB],5.31

# Test system: RKO;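 further: growth inhibition of human RKO cells, read out with a cell viability assay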
# Assay: cells
# Format: functional, cell-based, Homo sapiens
# Conditions: Homo sapiens, RKO
# Description: SANGER: Inhibition of human RKO cell growth in a cell viability assay.
row,SMILES,pIC50
1,CCN(CC)CCNC(=O)c1c(C)[nH]c(/C=C2\C(=O)Nc3ccc(F)cc32)c1C [SUNITINIB],< 5.10

# Test system: HCC1187;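 further: growth inhibition of HCC1187 cells, read out with a cell viability assay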
# Assay: cells
# Format: functional, cell-based, Homo sapiens
# Conditions: Homo sapiens, HCC1187
# Description: SANGER: Inhibition of human HCC1187 cell growth in a cell viability assay.
row,SMILES,pIC50
1,CCN(CC)CCNC(=O)c1c(C)[nH]c(/C=C2\C(=O)Nc3ccc(F)cc32)c1C [SUNITINIB],< 5.10

# Test system: HCE-4;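 further: cell viability assay measuring inhibition of growth in the human HCE-4 cell line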
# Assay: cells
# Format: functional, cell-based, Homo sapiens
# Conditions: Homo sapiens, HCE-4
# Description: SANGER: Inhibition of human HCE-4 cell growth in a cell viability assay.
row,SMILES,pIC50
1,CCN(CC)CCNC(=O)c1c(C)[nH]c(/C=C2\C(=O)Nc3ccc(F)cc32)c1C [SUNITINIB],5.42

# Test system: MMAC-SF;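 further: growth inhibition of human MMAC-SF cells, read out with a cell viability assay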
# Assay: cells
# Format: functional, cell-based, Homo sapiens
# Conditions: Homo sapiens, MMAC-SF
# Description: SANGER: Inhibition of human MMAC-SF cell growth in a cell viability assay.
row,SMILES,pIC50
1,CCN(CC)CCNC(=O)c1c(C)[nH]c(/C=C2\C(=O)Nc3ccc(F)cc32)c1C [SUNITINIB],5.21

# Test system: MOLT-4;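 further: growth inhibition of MOLT-4 cells, determined with a cell viability readout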
# Assay: cells
# Format: functional, cell-based, Homo sapiens
# Conditions: Homo sapiens, MOLT-4
# Description: SANGER: Inhibition of human MOLT-4 cell growth in a cell viability assay.
row,SMILES,pIC50
1,CCN(CC)CCNC(=O)c1c(C)[nH]c(/C=C2\C(=O)Nc3ccc(F)cc32)c1C [SUNITINIB],5.47

# Test system: SF-539;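 further: Read-out is a cell viability assay, with IC50 reflecting inhibition of cell growth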
# Assay: cells
# Format: functional, cell-based, Homo sapiens
# Conditions: Homo sapiens, SF-539
# Description: SANGER: Inhibition of human SF539 cell growth in a cell viability assay.
row,SMILES,pIC50
1,CCN(CC)CCNC(=O)c1c(C)[nH]c(/C=C2\C(=O)Nc3ccc(F)cc32)c1C [SUNITINIB],< 5.10

# Test system: LU-139
# Assay: cells
# Format: functional, cell-based, Homo sapiens
# Conditions: Homo sapiens, LU-139
# Description: SANGER: Inhibition of human LU-139 cell growth in a cell viability assay.
row,SMILES,pIC50
1,CCN(CC)CCNC(=O)c1c(C)[nH]c(/C=C2\C(=O)Nc3ccc(F)cc32)c1C [SUNITINIB],< 5.10

# Test system: CW-2;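 further: growth inhibition of CW-2 cells, read out by a cell viability assay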
# Assay: cells
# Format: functional, cell-based, Homo sapiens
# Conditions: Homo sapiens, CW-2
# Description: SANGER: Inhibition of human CW-2 cell growth in a cell viability assay.
row,SMILES,pIC50
1,CCN(CC)CCNC(=O)c1c(C)[nH]c(/C=C2\C(=O)Nc3ccc(F)cc32)c1C [SUNITINIB],< 5.10

# Test system: COLO-320-HSR;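 further: growth inhibition of COLO-320-HSR cells, determined with a cell viability assay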
# Assay: cells
# Format: functional, cell-based, Homo sapiens
# Conditions: Homo sapiens, COLO-320-HSR
# Description: SANGER: Inhibition of human COLO-320-HSR cell growth in a cell viability assay.
row,SMILES,pIC50
1,CCN(CC)CCNC(=O)c1c(C)[nH]c(/C=C2\C(=O)Nc3ccc(F)cc32)c1C [SUNITINIB],< 5.10

# Test system: A388;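 further: growth inhibition of human A388 cells, read out with a cell viability assay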
# Assay: cells
# Format: functional, cell-based, Homo sapiens
# Conditions: Homo sapiens, A388
# Description: SANGER: Inhibition of human A388 cell growth in a cell viability assay.
row,SMILES,pIC50
1,CCN(CC)CCNC(=O)c1c(C)[nH]c(/C=C2\C(=O)Nc3ccc(F)cc32)c1C [SUNITINIB],< 5.10

# Test system: KINGS-1;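 further: cell viability assay measuring suppression of KINGS-1 cell growth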
# Assay: cells
# Format: functional, cell-based, Homo sapiens
# Conditions: Homo sapiens, KINGS-1
# Description: SANGER: Inhibition of human KINGS-1 cell growth in a cell viability assay.
row,SMILES,pIC50
1,CCN(CC)CCNC(=O)c1c(C)[nH]c(/C=C2\C(=O)Nc3ccc(F)cc32)c1C [SUNITINIB],< 5.10

# Test system: NOS-1;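 further: growth inhibition of the human NOS-1 cell line, read out with a cell viability assay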
# Assay: cells
# Format: functional, cell-based, Homo sapiens
# Conditions: Homo sapiens, NOS-1
# Description: SANGER: Inhibition of human NOS-1 cell growth in a cell viability assay.
row,SMILES,pIC50
1,CCN(CC)CCNC(=O)c1c(C)[nH]c(/C=C2\C(=O)Nc3ccc(F)cc32)c1C [SUNITINIB],7.82

# Test system: LU-134-A
# Assay: cells
# Format: functional, cell-based, Homo sapiens
# Conditions: Homo sapiens, LU-134-A
# Description: SANGER: Inhibition of human LU-134-A cell growth in a cell viability assay.
row,SMILES,pIC50
1,CCN(CC)CCNC(=O)c1c(C)[nH]c(/C=C2\C(=O)Nc3ccc(F)cc32)c1C [SUNITINIB],< 5.10

# Test system: LB373-MEL-D;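 further: growth inhibition of the cell line, read out in a cell viability assay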
# Assay: cells
# Format: functional, cell-based, Homo sapiens
# Conditions: Homo sapiens, LB373-MEL-D
# Description: SANGER: Inhibition of human LB373-MEL-D cell growth in a cell viability assay.
row,SMILES,pIC50
1,CCN(CC)CCNC(=O)c1c(C)[nH]c(/C=C2\C(=O)Nc3ccc(F)cc32)c1C [SUNITINIB],< 5.10

# Test system: TK-10;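 further: growth inhibition of TK-10 cells, read out in a cell viability assay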
# Assay: cells
# Format: functional, cell-based, Homo sapiens
# Conditions: Homo sapiens, TK-10
# Description: SANGER: Inhibition of human TK10 cell growth in a cell viability assay.
row,SMILES,pIC50
1,CCN(CC)CCNC(=O)c1c(C)[nH]c(/C=C2\C(=O)Nc3ccc(F)cc32)c1C [SUNITINIB],< 5.10

# Test system: EW-16;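 further: growth inhibition of human EW-16 cells, read out as cell viability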
# Assay: cells
# Format: functional, cell-based, Homo sapiens
# Conditions: Homo sapiens, EW-16
# Description: SANGER: Inhibition of human EW-16 cell growth in a cell viability assay.
row,SMILES,pIC50
1,CCN(CC)CCNC(=O)c1c(C)[nH]c(/C=C2\C(=O)Nc3ccc(F)cc32)c1C [SUNITINIB],5.67

# Test system: KG-1;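 further: growth inhibition of KG-1 cells, read out by a cell viability assay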
# Assay: cells
# Format: functional, cell-based, Homo sapiens
# Conditions: Homo sapiens, KG-1
# Description: SANGER: Inhibition of human KG-1 cell growth in a cell viability assay.
row,SMILES,pIC50
1,CCN(CC)CCNC(=O)c1c(C)[nH]c(/C=C2\C(=O)Nc3ccc(F)cc32)c1C [SUNITINIB],5.22

# Test system: SHP77;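 further: growth inhibition of human SHP-77 cells measured by a cell viability assay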
# Assay: cells
# Format: functional, cell-based, Homo sapiens, SHP-77
# Conditions: Homo sapiens, SHP77
# Description: SANGER: Inhibition of human SHP-77 cell growth in a cell viability assay.
row,SMILES,pIC50
1,CCN(CC)CCNC(=O)c1c(C)[nH]c(/C=C2\C(=O)Nc3ccc(F)cc32)c1C [SUNITINIB],< 5.10

# Test system: KE-37;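 further: growth inhibition of KE-37 cells, read out with a cell viability assay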
# Assay: cells
# Format: functional, cell-based, Homo sapiens
# Conditions: Homo sapiens, KE-37
# Description: SANGER: Inhibition of human KE-37 cell growth in a cell viability assay.
row,SMILES,pIC50
1,CCN(CC)CCNC(=O)c1c(C)[nH]c(/C=C2\C(=O)Nc3ccc(F)cc32)c1C [SUNITINIB],5.39

# Test system: NCI-H1155;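 further: cell growth inhibition measured by a viability assay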
# Assay: cells
# Format: functional, cell-based, Homo sapiens
# Conditions: Homo sapiens, NCI-H1155
# Description: SANGER: Inhibition of human NCI-H1155 cell growth in a cell viability assay.
row,SMILES,pIC50
1,CCN(CC)CCNC(=O)c1c(C)[nH]c(/C=C2\C(=O)Nc3ccc(F)cc32)c1C [SUNITINIB],< 5.10

# Test system: MC116;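 further: growth inhibition of MC116 cells, read out with a cell viability assay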
# Assay: cells
# Format: functional, cell-based, Homo sapiens
# Conditions: Homo sapiens, MC116
# Description: SANGER: Inhibition of human MC116 cell growth in a cell viability assay.
row,SMILES,pIC50
1,CCN(CC)CCNC(=O)c1c(C)[nH]c(/C=C2\C(=O)Nc3ccc(F)cc32)c1C [SUNITINIB],5.35
